Assay results from patent publication US20230172899A1, “CANNABINOID COMPOSITIONS” (priority 2020, published 2023).
Values after ≈ are worked out from the molar mass of the structure shown. Like-named read-outs stand apart in the source and are kept apart here.

Tests used:
[1] = system: store-operated calcium entry (SOCE) in HEK293 cells; experiment: SOCE inhibition, Fura-2 Ca2+ bioassay, thapsigargin-induced, HEK293 cells; assay type: cell-based, human; conditions: for IC50: Homo sapiens, HEK293, read-out: IC50 SOCE HEK-293, Table 5, individual cannabinoids, HEK-293
[2] = system: store-operated calcium entry (SOCE) in U937 monocytes; experiment: SOCE inhibition, Fura-2 Ca2+ bioassay, thapsigargin-induced, U937 cells; assay type: cell-based, human; conditions: Homo sapiens
[3] = system: store-operated calcium entry (SOCE) in Luva human mast cells; experiment: SOCE inhibition, Fura-2 Ca2+ bioassay, thapsigargin-induced, Luva cells; assay type: cell-based; conditions: Homo sapiens, Mast cell, read-out: IC50 SOCE Luva
[4] = system: store-operated calcium entry (SOCE) in Jurkat T cells; experiment: SOCE inhibition, Fura-2 Ca2+ bioassay, thapsigargin-induced, Jurkat cells; assay type: cell-based, human; conditions: for IC50: Homo sapiens, Jurkat; for Combinatory effect on SOCE inhibition when paired with CBGA: isobolographic analysis, pairs expected to inhibit 50%; for IC50 on SOCE relative to acidic variations: dose response 0 to 30 μM
[5] = system: store-operated calcium entry (SOCE) in THP-1 cells; experiment: SOCE inhibition, combinatory (isobolographic) analysis, THP-1 cells; assay type: cell-based, human; conditions: Homo sapiens, THP-1, read-out: SOCE IC50
Description: Bar graphs shown in FIGS. 10A-10Z and 10BB display SOCE amplitudes calculated from area under the curve (AUC) of the SOCE signals and normalized to SOCE in the presence of gadolinium. Combinatory effects were assessed using an isobolographic analysis approach, where CBGA was paired with another cannabinoid using concentrations of CBGA corresponding to 50%, 40%, 30%, 20%, 10%, and 0% inhibition (as derived from the IC50 curves of FIGS. 9A-9P) and combined with concentrations of the paired cannabinoid, so that each combination would be expected to inhibit 50% of the Ca^2+ signal (e.g., the CBGA concentration causing 50% inhibition was tested alone without the other cannabinoid, the CBGA concentration expected to block 40% of the signal was combined with the concentration of the other cannabinoid expected to inhibit 10%, the CBGA concentration expected to block 30% of the signal was combined with the concentration of the other cannabinoid expected to inhibit 20%, and so on). Simple additivity of cannabinoid pairs would be expected to inhibit the Ca^2+ signal by 50%. All the data in these experiments represent an average of 3 independent runs and the values are graphed as mean values±SEM.

[6] = system: store-operated calcium entry (SOCE) in RBL-2H3 rat mast cells; experiment: SOCE inhibition, Fura-2 Ca2+ bioassay, thapsigargin-induced, RBL-2H3 cells; assay type: cell-based; conditions: Rattus norvegicus, RBL-2H3, read-out: IC50 SOCE RBL-2H3, Table 5; individual cannabinoids; RBL-2H3
[7] = system: store-operated calcium entry (SOCE) in THP-1 cells; experiment: SOCE inhibition, combinatory (isobolographic) analysis, THP-1 cells; assay type: cell-based, human; conditions: 10 μM cannabinoid plus 2.2 μM CBGA
CRAC channels (ICRAC) = experiment: Whole-cell patch clamp of IP3-induced ICRAC in Jurkat cells; assay type: cell-based, human; conditions: 10 μM, 50 μM IP3, −120 mV
Description: The ability of CBGA to inhibit store-operated calcium entry (SOCE) within cells was experimentally interrogated (see FIG. 12). Jurkat cells were perfused with 50 μM IP3 to induce store depletion and activation of CRAC channels (the resulting Ca^2+ inward current is known as ICRAC). ICRAC is a long-lasting inward current at −120 mV membrane potential (black trace) that can be blocked by 10 μM CBGA (gray trace).
(§1) Inward CRAC currents were induced at −120 mV (gray trace) and outward currents at +40 mV (black trace, where CRAC currents reverse and are essentially absent). At the +40 mV voltage potential, TRPM7 channels produce monovalent outward currents. Perfusion of 50 μM IP3 activates ICRAC at −120 mV as above and the removal of intracellular ATP slowly activates TRPM7 current at +40 mV. Application of 10 μM CBGA blocks both outward TRPM7 and inward CRAC currents (see FIG. 13, black and gray traces, respectively). Without being bound by theory, CBGA may also block TRPM7's kinase activity, similar to other TRPM7 blockers such as NS8593.

TRPM7 [8] = biological target: T1, TRPM7 (Homo sapiens, UniProt Q96QT4); experiment: Whole-cell patch clamp of TRPM7 outward current in Jurkat cells; assay type: cell-based; set-up: endogenous in cells; host or cells: Jurkat; conditions: 10 μM, +40 mV, removal of intracellular ATP
Description: as §1
Target sequence in this assay (Q96QT4 whole entry): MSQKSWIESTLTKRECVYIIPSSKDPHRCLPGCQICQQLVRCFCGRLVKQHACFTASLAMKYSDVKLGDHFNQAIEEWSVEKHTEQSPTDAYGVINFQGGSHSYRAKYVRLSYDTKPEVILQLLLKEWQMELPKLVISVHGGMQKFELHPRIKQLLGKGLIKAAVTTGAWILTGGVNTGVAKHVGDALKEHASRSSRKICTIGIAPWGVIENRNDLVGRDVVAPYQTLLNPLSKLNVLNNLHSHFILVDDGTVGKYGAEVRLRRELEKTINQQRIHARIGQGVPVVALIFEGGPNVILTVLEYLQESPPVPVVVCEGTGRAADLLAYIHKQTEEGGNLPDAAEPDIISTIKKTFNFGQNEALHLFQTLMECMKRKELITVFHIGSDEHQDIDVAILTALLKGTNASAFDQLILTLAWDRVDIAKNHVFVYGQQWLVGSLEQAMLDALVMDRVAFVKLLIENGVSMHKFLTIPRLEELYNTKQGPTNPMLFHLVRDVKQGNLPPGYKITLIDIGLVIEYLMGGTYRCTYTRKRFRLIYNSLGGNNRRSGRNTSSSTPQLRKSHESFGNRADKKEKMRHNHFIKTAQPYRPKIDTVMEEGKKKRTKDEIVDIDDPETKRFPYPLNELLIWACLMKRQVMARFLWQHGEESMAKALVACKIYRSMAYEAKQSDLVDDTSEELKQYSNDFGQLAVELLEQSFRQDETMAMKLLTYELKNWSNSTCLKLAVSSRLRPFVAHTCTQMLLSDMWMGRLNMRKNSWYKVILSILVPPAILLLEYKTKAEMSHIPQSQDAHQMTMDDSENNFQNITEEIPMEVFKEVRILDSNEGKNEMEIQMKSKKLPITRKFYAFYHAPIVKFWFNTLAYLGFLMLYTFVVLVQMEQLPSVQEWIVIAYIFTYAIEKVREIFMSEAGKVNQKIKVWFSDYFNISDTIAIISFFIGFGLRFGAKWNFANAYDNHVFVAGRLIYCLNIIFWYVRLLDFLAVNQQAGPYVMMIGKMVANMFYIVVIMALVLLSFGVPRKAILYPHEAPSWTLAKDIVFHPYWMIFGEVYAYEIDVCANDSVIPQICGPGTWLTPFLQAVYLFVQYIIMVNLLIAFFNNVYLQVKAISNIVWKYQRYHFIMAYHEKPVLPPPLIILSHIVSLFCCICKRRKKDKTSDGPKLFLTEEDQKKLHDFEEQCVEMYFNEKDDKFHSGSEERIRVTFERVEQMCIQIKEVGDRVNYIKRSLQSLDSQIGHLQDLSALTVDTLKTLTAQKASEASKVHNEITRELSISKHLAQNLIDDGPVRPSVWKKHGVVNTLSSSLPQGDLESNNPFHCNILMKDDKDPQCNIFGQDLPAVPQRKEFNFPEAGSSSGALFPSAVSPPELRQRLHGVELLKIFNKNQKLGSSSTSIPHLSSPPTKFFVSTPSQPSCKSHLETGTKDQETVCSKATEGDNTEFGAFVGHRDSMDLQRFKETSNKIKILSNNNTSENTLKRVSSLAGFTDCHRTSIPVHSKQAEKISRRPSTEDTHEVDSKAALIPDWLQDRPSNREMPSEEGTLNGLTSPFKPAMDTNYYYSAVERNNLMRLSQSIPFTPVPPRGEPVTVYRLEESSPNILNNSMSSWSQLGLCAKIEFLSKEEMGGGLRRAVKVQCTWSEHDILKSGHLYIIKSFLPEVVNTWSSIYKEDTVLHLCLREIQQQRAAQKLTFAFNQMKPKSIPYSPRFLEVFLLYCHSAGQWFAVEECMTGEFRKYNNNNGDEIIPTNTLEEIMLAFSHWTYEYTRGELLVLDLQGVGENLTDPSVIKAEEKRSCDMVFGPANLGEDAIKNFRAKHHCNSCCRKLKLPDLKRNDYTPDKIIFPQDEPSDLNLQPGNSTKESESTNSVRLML

TRPM7 [9] = biological target: T1, TRPM7; experiment: Whole-cell patch clamp of TRPM7 over-expressed in HEK293 cells; assay type: cell-based; set-up: expressed in transfected cells; host or cells: HEK293; conditions: HEK293 over-expressing TRPM7; 1, 3, 10 or 30 μM; +40 mV; 0 ATP, 0 Mg2+
Description: Activation of TRPM7 over-expressed in HEK293 cells by perfusing the cells with intracellular solution containing 0 ATP and 0 Mg^2+, resulting in fast and maximal activation of TRPM7 outward currents at +40 mV is shown in FIG. 14.
Data from dose-response curves for the inhibition of TRPM7 currents (dark gray symbols) obtained in experiments shown in FIG. 14 and SOCE-mediated increases in intracellular Ca^2+ (light gray symbols) are shown in FIG. 15.
Target sequence in this assay (Q96QT4 whole entry, species assumed): as the sequence (Q96QT4 whole entry) above

[10] = system: store-operated calcium entry (SOCE) in various cell types; experiment: Thapsigargin-induced SOCE Fura-2 bioassay across various cell types; assay type: cell-based; conditions: 1 μM; positive control; Jurkat, U937, Luva, RBL-2H3, HL-60, HEK-293
Description: A Fura-2 calcium flux assay was used to determine cytoplasmic Ca^2+ levels. Briefly, cells were preloaded with Fura-2 AM, and fluorescence intensity in cells intensity was measured over time as a ratio of detected 510 nm fluorescent light emission intensity when excited by UV light at 340 nm and 380 nm wavelengths (f340/f380 ratio). Gadolinium (Gd^3+) is known to block SOCE at a concentration of 1 μM and was used at 1 μM as a positive control in these experiments (gray line).
FIGS. 11TT-11-XX show dose-response curves for hemp varieties on store-operated calcium entry (SOCE) induced by thapsigargin in HEK-293, Jurkat, U937, LUVA, and RBL-2H3 cells. Hemp extracts (cold extracted and unheated) were tested at 6 different doses from 1 to 50 μg/ml. The effects on SOCE amplitude were plotted in a dose-dependent manner to determine the IC50 for each tested compound (see Table 6 for determined IC50 values). All data are averages of three independent runs±SEM. Tested hemp varieties were: Otto-18, Harlequin (HAR), and BOAX.
The general extraction method of Example 6 was carried out, and hemp extracts were subjected to heat treatment prior to testing for activity in the SOCE assay. In some instances, unheated and heated hemp extracts were combined prior to activity testing in the SOCE assay.

[11] = U-937, read-out: IC50 SOCE U937, Table 5, individual cannabinoids, U937
[12] = read-out: IC50 SOCE Jurkat, Table 5, individual cannabinoids

Row | Structure (SMILES) | IC50 [1] [µg/mL] | IC50 [2, 11] [µg/mL] | IC50 [3] [µg/mL] | IC50 [4, 12] [µg/mL] | Combinatory effect on SOCE inhibition when paired with CBGA ([4]; Jurkat cells) | IC50 [5] [µM] | IC50 [6] [µg/mL] | Combinatory effect when paired with 2.2 μM CBGA [7] | IC50 ([2]; U-937, read-out: IC50 SOCE U937) [µg/mL] | IC50 ([4]; read-out: IC50 SOCE Jurkat) [µg/mL] | Effect on SOCE (Ca2+ signals), pure compounds ([4]; Jurkat cells, compounds at 10 μM, 1 μM thapsigargin) | IC50 on SOCE relative to acidic variations ([4]; Jurkat cells) | Inhibitory effect in immune cells compared with non-immune HEK293 cells ([1]; Jurkat vs HEK293 screening, 10 μM) | Block of inward CRAC current (ICRAC) (CRAC channels (ICRAC)) | IC50 ([4]; read-out: IC50 inhibition of SOCE-mediated increases in intracellular Ca2+, FIG. 15, cell type not stated there) [µM] | Block of outward TRPM7 current (TRPM7 [8]) | Block of TRPM7 current (TRPM7 [9]) | Effect on thapsigargin-induced SOCE (f340/f380 ratio) [10]
1 | CCCCCc1cc(O)c2c(c1)OC(C)(C)c1ccc(C)cc1-2 [CBN, 6,6,9-trimethyl-3-pentyl-6H-benzo[c]chromen-1-ol] | 42.6 (≈ 137 µM) | 45.3 (≈ 146 µM) | > 50 | 9.09 | Simple additive behavior | > 30 | 33.4 (≈ 108 µM) | simple additive agonists |  |  |  |  |  |  |  |  |  | 
2 | CCCCCc1cc(O)c2c(c1)OC(C)(C)[C@@H]1CC=C(C)C[C@@H]21 [Δ8-THC, (6aR,10aR)-6,6,9-trimethyl-3-pentyl-6a,7,10,10a-tetrahydro-6H-benzo[c]chromen-1-ol] | > 50 | > 50 | > 50 | 14.2 | inhibit less than predicted | > 30 | 39.7 (≈ 126 µM) | sub-additive |  |  |  |  |  |  |  |  |  | 
3 | C=C(C)[C@@H]1CCC(C)=C[C@H]1c1c(O)cc(CCCCC)cc1O [CBD, (1′R,2′R)-5′-methyl-4-pentyl-2′-(prop-1-en-2-yl)-1′,2′,3′,4′-tetrahydro-[1,1′-biphenyl]-2,6-diol] | > 50 |  | > 50 |  | Simple additive behavior | > 30 | 2.53 (≈ 8.05 µM) | sub-additive | > 50 | 7.42 | low to no effects | higher IC50 than their acidic variations |  |  |  |  |  | 
4 | CCCCCc1cc(O)c(C/C=C(\C)CCC=C(C)C)c(O)c1 [CBG, (E)-2-(3,7-dimethylocta-2,6-dien-1-yl)-5-pentylbenzene-1,3-diol] | > 50 | 33.5 (≈ 106 µM) | 33.6 (≈ 106 µM) | 2.36 | stronger than predicted inhibitions | > 30 | 3.29 (≈ 10.4 µM) | simple additive agonists |  |  |  | higher IC50 than their acidic variations |  |  |  |  |  | 
5 | CCCCCc1cc(O)c(C/C=C(\C)CCC=C(C)C)c(O)c1C(=O)O [CBGA, (E)-3-(3,7-dimethylocta-2,6-dien-1-yl)-2,4-dihydroxy-6-pentylbenzoic acid] | 5.72 (≈ 15.9 µM) | 2.23 (≈ 6.19 µM) | 2.21 (≈ 6.13 µM) | 0.53 |  | ~2.2 | 0.27 (≈ 0.749 µM) |  |  |  |  |  | more potent | completely blocks | ~2 | blocks | dose-dependent block | 
6 | [Cl][Gd]([Cl])[Cl] [Gd^3+, Gadolinium Chloride] |  |  |  |  |  |  |  |  |  |  |  |  |  |  |  |  |  | inhibited SOCE
